Laboratory results published in ChEMBL document CHEMBL5352415, “Discovery of new macrophage M2 polarization modulators as multiple sclerosis treatment agents that enable the inflammation microenvironment remodeling” (Eur J Med Chem, 2022).
pIC50: −log10 of the molar value. Calls of active or inactive are those of the source. The rule behind the calls is not given here.

Key:
[1] = test system: Mus musculus; test: (§1) Anti-inflammatory activity in MOG (35 to 55 residues)/pertussis toxin-induced experimental autoimmune encephalomyelitis C57BL/6 mouse model assessed as increase in F4/80+ CD206+ M2 macrophage in DLN at 75 to 150 mg/kg, po administered once daily starting from day 7 to day 20 by flow cytometric analysis; assay type: functional; settings: dose 75-150 mg/kg, time 14 day
[2] = test system: Mus musculus; test: (§2) Anti-inflammatory activity in MOG (35 to 55 residues)/pertussis toxin-induced experimental autoimmune encephalomyelitis C57BL/6 mouse model assessed as inhibition of CD4+ T cell differentiation by measuring reduction in Th1 (IFN-gamma+) cells in spleen administered orally once daily starting from day 7 to day 20 by flow cytometric analysis; assay type: functional, organism-based; settings: dose 75-150 mg/kg, route po, time 14.0 day
[3] = test system: BMDM; test: Inhibition of LPS-induced M1 macrophage polarization in C57BL/6 mouse BMDM cells assessed as decrease in IFN-gamma level preincubated with LPS for 24 hrs followed by compound addition and measured after 24 hrs by qRT-PCR analysis; assay type: functional, cell-based; settings: dose 0.05-2 µM
[4] = test system: Mus musculus; test: (§3) Anti-inflammatory activity in MOG (35 to 55 residues)/pertussis toxin-induced experimental autoimmune encephalomyelitis C57BL/6 mouse model assessed as M2 macrophage polarization by measuring increase in Mrc1 mRNA expression in CNS at 75 to 150 mg/kg, po administered once daily starting from day 7 to day 20 by qRT-PCR analysis; assay type: functional, organism-based; settings: dose 75-150 mg/kg, time 14.0 day
[5] = Inhibition of LPS-induced M1 macrophage polarization in C57BL/6 mouse BMDM cells assessed as fold change in IL-6 gene level at 1 uM preincubated with LPS for 24 hrs followed by compound addition and measured after 24 hrs by qRT-PCR analysis (reference value: 36.05 +/- 10.74); assay type: functional
[6] = Tmax in ICR mouse at 50 mg/kg, po measured upto 24 hrs by LC/MS analysis; assay type: ADME, organism-based; settings: in vivo
[7] = test system: Mus musculus; test: (§4) Anti-inflammatory activity in MOG (35 to 55 residues)/pertussis toxin-induced experimental autoimmune encephalomyelitis C57BL/6 mouse model assessed as T cell activation by measuring increase in CD44lo CD62Lhi naive T cells in spleen at 75 to 150 mg/kg, po administered once daily starting from day 7 to day 20 by flow cytometric analysis; assay type: functional, organism-based; settings: dose 75-150 mg/kg, time 14.0 day
[8] = test system: Mus musculus; test: as §1, with “spleen” for “DLN”; assay type: functional; settings: dose 75-150 mg/kg, time 14 day
[9] = test system: Mus musculus; test: as §1, with “decrease” for “increase”, “CD86+ M1” for “CD206+ M2”; assay type: functional, organism-based; settings: dose 75-150 mg/kg, time 14.0 day
[10] = biological target: RAC-alpha serine/threonine-protein kinase (Homo sapiens, UniProt P31749); test: Inhibition of AKT1 (unknown origin); assay type: binding
Sequence of RAC-alpha serine/threonine-protein kinase (Homo sapiens, UniProt P31749) (P31749 whole entry): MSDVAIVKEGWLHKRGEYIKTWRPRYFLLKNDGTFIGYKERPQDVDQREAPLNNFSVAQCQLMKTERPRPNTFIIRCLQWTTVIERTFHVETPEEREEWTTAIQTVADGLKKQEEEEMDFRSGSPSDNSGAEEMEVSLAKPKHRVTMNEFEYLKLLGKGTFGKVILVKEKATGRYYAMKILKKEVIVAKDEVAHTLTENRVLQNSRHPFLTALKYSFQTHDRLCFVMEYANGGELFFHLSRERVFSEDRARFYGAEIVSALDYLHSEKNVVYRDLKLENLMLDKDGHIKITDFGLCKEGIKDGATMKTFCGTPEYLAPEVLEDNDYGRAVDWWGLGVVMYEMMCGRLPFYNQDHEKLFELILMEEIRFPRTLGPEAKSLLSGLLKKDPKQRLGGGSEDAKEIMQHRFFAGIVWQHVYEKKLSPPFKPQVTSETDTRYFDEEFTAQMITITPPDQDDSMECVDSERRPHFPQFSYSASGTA

[11] = Half-life in ICR mouse at 50 mg/kg, po measured upto 24 hrs by LC/MS analysis; assay type: ADME, organism-based; settings: in vivo
[12] = test system: Mus musculus; test: as §4, with “decrease” for “increase”, “CD44hi CD62Llo” for “CD44lo CD62Lhi naive”, “DLN” for “spleen”; assay type: functional; design: scale not given: the % may be the effect or the level left; settings: dose 75-150 mg/kg, time 14 day
[13] = test system: Mus musculus; test: as §1, with “attenuation of demyelination” for “increase”, “spinal cord” for “F4/80+ CD206+ M2 macrophage in DLN”, “luxol fast blue staining based” for “flow cytometric”; assay type: functional, organism-based; settings: dose 75-150 mg/kg, time 14.0 day
[14] = test system: Mus musculus; test: Anti-inflammatory activity in MOG (35 to 55 residues)/pertussis toxin-induced experimental autoimmune encephalomyelitis C57BL/6 mouse model assessed as decrease in disease progression by measuring cumulative score at 75 to 150 mg/kg, po administered once daily starting from day 7 to day 20; assay type: functional, organism-based; settings: dose 75-150 mg/kg, time 14.0 day
[15] = test system: BMDM; test: Inhibition of LPS-induced M1 macrophage polarization in C57BL/6 mouse BMDM cells assessed as decrease in Inos gene level preincubated with LPS for 24 hrs followed by compound addition and measured after 24 hrs by qRT-PCR analysis; assay type: functional, cell-based; settings: dose 0.05-2 µM
[16] = test system: Mus musculus; test: as §2, with “DLN” for “spleen”; assay type: functional, organism-based; settings: dose 75-150 mg/kg, route po, time 14.0 day
[17] = Inhibition of LPS-induced M1 macrophage polarization in C57BL/6 mouse BMDM cells assessed as fold change in IL-1beta gene level at 1 uM preincubated with LPS for 24 hrs followed by compound addition and measured after 24 hrs by qRT-PCR analysis (reference value: 44.88 +/- 1.99); assay type: functional
[18] = biological target: T1, RAC-alpha serine/threonine-protein kinase (Mus musculus, UniProt P31750); test: Inhibition of Akt phosphorylation at Ser473 in C57BL/6 mouse BMDM cells at 50 to 500 nM incubated for 24 hrs by Western blot analysis; assay type: cell-based; settings: 0.5 µM, dose 50-500 nM
T1 sequence (P31750 whole entry): as the sequence (P31749 whole entry) above, with S2N, A50S, T100A, K112R, E117T, K389T, G410N, H415D counted along it

[19] = test system: Mus musculus; test: as §4, with “DLN” for “spleen”; assay type: functional, organism-based; settings: dose 75-150 mg/kg, time 14.0 day
[20] = test system: Mus musculus; test: as §3, with “Ym1” for “Mrc1”; assay type: functional, organism-based; settings: dose 75-150 mg/kg, time 14.0 day
[21] = Induction of M2 macrophage polarization in C57BL/6 mouse BMDM cells assessed as fold increase in Ym1 gene level at 1 uM incubated for 24 hrs by qRT-PCR analysis; assay type: functional
[22] = AUC(0 to t) in ICR mouse at 50 mg/kg, po measured upto 24 hrs by LC/MS analysis; assay type: ADME, organism-based; design: dose 50 mg/kg, time < 24 hrs, route po; settings: in vivo
[23] = test system: Mus musculus; test: as §3, with “inhibition of M1” for “M2”, “decrease” for “increase”, “Inos” for “Mrc1”, “CNS” for “CNS at 75 to 150 mg/kg, po”, “administered orally” for “administered”; assay type: functional, organism-based; settings: dose 75-150 mg/kg, route po, time 14.0 day
[24] = AUC(0 to infinity) in ICR mouse at 50 mg/kg, po measured upto 24 hrs by LC/MS analysis; assay type: ADME, organism-based; design: dose 50 mg/kg, time < 24 hrs, route po; settings: in vivo
[25] = test system: Mus musculus; test: as §3, with “inhibition of M1” for “M2”, “decrease” for “increase”, “IL-6” for “Mrc1”; assay type: functional, organism-based; settings: dose 75-150 mg/kg, time 14.0 day
[26] = test system: Mus musculus; test: as §3, with “Arg1” for “Mrc1”; assay type: functional, organism-based; settings: dose 75-150 mg/kg, time 14.0 day
[27] = test system: Mus musculus; test: as §3, with “inhibition of M1” for “M2”, “decrease” for “increase”, “interferon-gamma” for “Mrc1”; assay type: functional, organism-based; settings: dose 75-150 mg/kg, time 14.0 day
[28] = biological target: RAC-beta serine/threonine-protein kinase (Homo sapiens, UniProt P31751); test: Inhibition of AKT2 (unknown origin); assay type: binding
Sequence of RAC-beta serine/threonine-protein kinase (P31751 whole entry): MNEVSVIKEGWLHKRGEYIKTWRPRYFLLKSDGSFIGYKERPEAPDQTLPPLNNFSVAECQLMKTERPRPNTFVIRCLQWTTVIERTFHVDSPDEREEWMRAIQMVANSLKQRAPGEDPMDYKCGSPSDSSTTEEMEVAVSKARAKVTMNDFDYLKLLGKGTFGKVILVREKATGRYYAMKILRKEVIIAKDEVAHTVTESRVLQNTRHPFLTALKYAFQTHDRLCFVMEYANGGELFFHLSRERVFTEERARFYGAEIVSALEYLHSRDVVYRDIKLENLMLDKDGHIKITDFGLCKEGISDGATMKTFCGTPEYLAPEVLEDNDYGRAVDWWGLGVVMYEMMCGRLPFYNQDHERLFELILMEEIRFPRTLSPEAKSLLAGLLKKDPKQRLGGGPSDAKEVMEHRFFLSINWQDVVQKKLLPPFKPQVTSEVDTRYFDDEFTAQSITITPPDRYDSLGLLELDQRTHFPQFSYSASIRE

[29] = Inhibition of M1 macrophage polarization in C57BL/6 mouse BMDM cells assessed as fold change in IL-1beta gene level at 1 uM incubated for 24 hrs by qRT-PCR analysis (reference value: 1); assay type: functional
[30] = biological target: T1, RAC-alpha serine/threonine-protein kinase; test: Inhibition of LPS-induced Akt phosphorylation at Ser473 in C57BL/6 mouse BMDM cells at 50 to 500 nM incubated for 24 hrs by Western blot analysis; assay type: cell-based; settings: 0.5 µM, dose 50-500 nM
[31] = Induction of M2 macrophage polarization in C57BL/6 mouse BMDM cells assessed as fold increase in Arg1 gene level at 1 uM incubated for 24 hrs by qRT-PCR analysis; assay type: functional

Q: What does the source list for `Cl.Cn1ncc(Br)c1-c1ccc(C(=O)N[C@@H]2CNCC[C@H]2c2ccc(F)c(F)c2)cc1C1CC1`?
A: Activity [1]: 10.6%; Activity [2]: Dose-Dependent Effect; inhibition [3]: Dose-Dependent Effect; Activity [4]: Active; fold change (FC) [5]: 69.99; Tmax [6]: 4 h; Activity [7]: Active; Activity [8]: 12.4%; Activity [9]: Active; pIC50 [10]: 6.36; half-life [11]: 13.7 h; Activity [12]: 29%; Activity [13]: Active; Activity [14]: Active; inhibition [15]: Dose-Dependent Effect; Activity [16]: Dose-Dependent Effect; fold change (FC) [17]: 71.77; inhibition (INH) [18]: Not Active; Activity [19]: Active; Activity [20]: Active; fold change (FC) [21]: 14.31; AUC(0-t) at 24 h [22]: 27600 ng·h/mL; Activity [23]: Dose-Dependent Effect; AUC(0-inf) [24]: 27900 ng·h/mL; Activity [25]: Active; Activity [26]: Active; Activity [27]: Active; pIC50 [28]: < 6.00; fold change (FC) [29]: 4.15; inhibition (INH) [30]: Not Active; fold change (FC) [31]: 10.28
